In ChEMBL document CHEMBL4330064, “Phytoestrogens and their synthetic analogues as substrate mimic inhibitors of CYP1B1” (Eur J Med Chem, 2019) one finds IC50, INH and Ki data, which are given here for 13 compounds.

The target in series [1] is T1, Cytochrome P450 1B1 (Homo sapiens, UniProt Q16678).
T1 sequence (Q16678 whole entry): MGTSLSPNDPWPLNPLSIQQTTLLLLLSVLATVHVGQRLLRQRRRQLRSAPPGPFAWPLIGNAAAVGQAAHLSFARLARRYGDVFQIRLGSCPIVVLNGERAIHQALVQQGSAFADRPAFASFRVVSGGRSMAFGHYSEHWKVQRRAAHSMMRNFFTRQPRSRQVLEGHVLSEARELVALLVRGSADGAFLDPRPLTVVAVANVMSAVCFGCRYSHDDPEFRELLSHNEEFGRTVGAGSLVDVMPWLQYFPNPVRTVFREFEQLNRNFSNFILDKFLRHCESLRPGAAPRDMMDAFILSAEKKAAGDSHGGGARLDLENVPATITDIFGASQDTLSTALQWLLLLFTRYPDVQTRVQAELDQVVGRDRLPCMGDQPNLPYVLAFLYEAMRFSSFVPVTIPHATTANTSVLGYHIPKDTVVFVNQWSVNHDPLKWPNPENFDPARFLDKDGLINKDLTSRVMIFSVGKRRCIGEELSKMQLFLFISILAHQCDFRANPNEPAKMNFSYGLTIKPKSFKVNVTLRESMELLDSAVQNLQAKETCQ
The experiment in a line: Inhibition of CYP1B1 in human MCF7 cells assessed as reduction in DMBA-induced CYP1B1-mediated EROD activity by EROD assay. It counts as cell-based.

The target of series [2] is T1, Cytochrome P450 1B1. Briefly: Inhibition of CYP1B1 in human MCF7 cells assessed as reduction in TCDD-induced CYP1B1-mediated EROD activity by EROD assay. It counts as cell-based.
The target of series [3] is T1, Cytochrome P450 1B1. The experiment in a line: Inhibition of human CYP1B1 using 7-Ethoxyresorufin as substrate after 30 mins in presence of NADP+ by EROD assay.
Series [4] deals with T2, Cytochrome P450 1A1 (Homo sapiens, UniProt P04798). Briefly: Inhibition of human CYP1A1 by EROD assay. It is filed as ADME.
Series [5] addresses T2, Cytochrome P450 1A1. Briefly: Inhibition of human CYP1A1 using 7-Ethoxyresorufin as substrate after 15 mins in presence of NADP+ by EROD assay. It counts as ADME.
Series [6] deals with T3, Cytochrome P450 1A2 (Homo sapiens, UniProt P05177).
T3 sequence (P05177 whole entry): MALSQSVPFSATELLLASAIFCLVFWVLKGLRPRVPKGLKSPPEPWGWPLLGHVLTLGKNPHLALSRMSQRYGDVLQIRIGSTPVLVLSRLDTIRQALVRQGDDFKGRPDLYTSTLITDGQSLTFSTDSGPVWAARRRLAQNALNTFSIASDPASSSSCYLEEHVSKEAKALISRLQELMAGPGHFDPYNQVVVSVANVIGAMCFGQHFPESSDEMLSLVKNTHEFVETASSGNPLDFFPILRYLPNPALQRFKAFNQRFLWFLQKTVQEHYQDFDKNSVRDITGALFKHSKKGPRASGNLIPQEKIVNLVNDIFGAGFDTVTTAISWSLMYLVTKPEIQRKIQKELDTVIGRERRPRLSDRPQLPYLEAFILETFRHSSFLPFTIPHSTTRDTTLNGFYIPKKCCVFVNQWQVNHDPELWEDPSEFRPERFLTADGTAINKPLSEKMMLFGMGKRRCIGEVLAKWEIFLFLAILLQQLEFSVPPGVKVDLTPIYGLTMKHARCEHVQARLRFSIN
Briefly: Inhibition of human CYP1A2 using 7-Ethoxyresorufin as substrate after 50 mins in presence of NADP+ by EROD assay. It counts as ADME.

In series [7] the target is T2, Cytochrome P450 1A1. Briefly: Inhibition of […] CYP1A1 expressed in Escherichia coli DH5alpha cell membranes coexpressing human NADPH-cytochrome P450 reductase using 7-Ethoxyresorufin as substrate preincubated for 3 mins followed by NADPH addition measured after 10 mins by EROD assay. It is filed as ADME.
Series [8] deals with T1, Cytochrome P450 1B1. Briefly: Inhibition of CYP1B1 in human HepG2 cells. It counts as cell-based.
Series [9] concerns the target T1, Cytochrome P450 1B1. The experiment in a line: Inhibition of human CYP1B1 expressed in Escherichia coli DH5alpha cell membranes coexpressing human NADPH-cytochrome P450 reductase using 7-Ethoxyresorufin as substrate by EROD assay.
The target of series [10] is T3, Cytochrome P450 1A2. The experiment in a line: Inhibition of […] CYP1A2 expressed in Escherichia coli DH5alpha cell membranes coexpressing human NADPH-cytochrome P450 reductase using 7-Ethoxyresorufin as substrate preincubated for 3 mins followed by NADPH addition measured after 10 mins by EROD assay. It counts as ADME.
Series [11] addresses T1, Cytochrome P450 1B1. Briefly: Inhibition of […] CYP1B1 expressed in Escherichia coli DH5alpha cell membranes coexpressing human NADPH-cytochrome P450 reductase using 7-Ethoxyresorufin as substrate preincubated for 3 mins followed by NADPH addition measured after 10 mins by EROD assay.
In series [12] the target is T2, Cytochrome P450 1A1. The experiment in a line: Inhibition of human CYP1A1 using ethoxyresorufin as substrate by MROD assay. It counts as ADME.
For series [13], the target named is T2, Cytochrome P450 1A1. Briefly: Inhibition of human CYP1A1 using ethoxyresorufin as substrate by EROD assay. It counts as ADME.
In series [14] the target is T1, Cytochrome P450 1B1. The experiment in a line: Mixed type inhibition of human CYP1B1 by EROD assay.
For series [15], the target named is T1, Cytochrome P450 1B1.
Description: Inhibition of human CYP1B1 by EROD assay

T2 sequence (P04798 whole entry): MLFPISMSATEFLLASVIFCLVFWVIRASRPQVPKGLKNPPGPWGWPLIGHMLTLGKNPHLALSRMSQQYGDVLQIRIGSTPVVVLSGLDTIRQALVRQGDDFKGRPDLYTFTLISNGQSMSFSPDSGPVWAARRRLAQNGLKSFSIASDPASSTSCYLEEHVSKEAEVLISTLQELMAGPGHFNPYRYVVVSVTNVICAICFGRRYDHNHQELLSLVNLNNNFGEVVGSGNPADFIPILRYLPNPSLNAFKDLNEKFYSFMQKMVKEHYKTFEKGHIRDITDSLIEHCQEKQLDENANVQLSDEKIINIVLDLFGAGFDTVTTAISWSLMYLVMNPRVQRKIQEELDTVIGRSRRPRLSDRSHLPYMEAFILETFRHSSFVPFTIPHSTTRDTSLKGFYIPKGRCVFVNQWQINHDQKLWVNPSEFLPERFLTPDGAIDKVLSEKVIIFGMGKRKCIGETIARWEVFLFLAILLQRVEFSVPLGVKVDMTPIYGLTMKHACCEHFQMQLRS

What is called IC50 is the midpoint of a concentration-inhibition curve. Regarding `C[C@]12CCCCC1=CC[C@@H]1[C@@H]2CC[C@]2(C)C(=O)[C@H](F)C[C@@H]12`, the values for the half-inhibitory concentration (IC50) on Cytochrome P450 1B1 [1] and on Cytochrome P450 1B1 [2] were 500 nM and 2500 nM, respectively.
Take `COc1ccc(-c2cc(=O)c3cc(OC)c4cccc(OC)c4c3[nH]2)cc1`: the IC50 on Cytochrome P450 1B1 [3] was 4.1 nM.
For the compound `COc1ccc2c(c(OC)cc3c(=O)cc(-c4ccc(F)cc4)oc32)c1OC`, 1 nM corresponded to half-maximal inhibition on Cytochrome P450 1A1 [4] (IC50).
Regarding `COc1cc2c(=O)cc(-c3cccc(Br)c3)[nH]c2c2c(OC)cccc12`, the concentration for half-maximal inhibition (IC50) on Cytochrome P450 1B1 [3] is 3.6 nM.
Consider `COc1cc2c(=O)cc(-c3ccc(F)cc3)[nH]c2c2c(OC)cccc12`, for which the IC50 on Cytochrome P450 1B1 [3] was 3.9 nM; at Cytochrome P450 1A1 [5] it was 10.5 nM; on Cytochrome P450 1A2 [6], 190 nM.
At Cytochrome P450 1A1 [7], `O=c1cc(-c2ccc(O)cc2)oc2cc(O)cc(O)c12` [APIGENIN] displayed an INH of 4.1 µM.
For the compound `COc1ccc2cc3[n+](cc2c1OC)CCc1cc2c(cc1-3)OCO2` [BERBERINE], the IC50 stood at 2500 nM on Cytochrome P450 1B1 [8] and 94 nM at Cytochrome P450 1B1 [9].
For the compound `O=c1cc(-c2ccccc2)oc2cc(O)cc(O)c12` [CHRYSIN], the INH on Cytochrome P450 1A2 [10] turned out to be 0.42 µM; on Cytochrome P450 1B1 [11], 0.28 µM; on Cytochrome P450 1A1 [7] it was 6.2 µM.
With `COc1cc(-c2oc3cc(O)cc(O)c3c(=O)c2O)ccc1O` [ISORHAMNETIN], the INH on Cytochrome P450 1A2 [10] was 137 µM; at Cytochrome P450 1B1 [11], 30.1 µM; on Cytochrome P450 1A1 [7], 25 µM.
The compound `O=c1c(O)c(-c2ccc(O)cc2)oc2cc(O)cc(O)c12` [KAEMPFEROL] displayed an INH on Cytochrome P450 1A1 [7] of 52 µM.
As to `O=c1cc(-c2ccc(O)c(O)c2)oc2cc(O)cc(O)c12` [LUTEOLIN], the INH at Cytochrome P450 1A2 [10] came out at 8.9 µM; on Cytochrome P450 1B1 [11], 0.36 µM; at Cytochrome P450 1A1 [7] it was 1.2 µM.
Turning to `O=c1c(O)c(-c2ccc(O)c(O)c2)oc2cc(O)cc(O)c12` [QUERCETIN], the INH on Cytochrome P450 1A2 [10] amounted to 418 µM; on Cytochrome P450 1B1 [11], 23 µM; on Cytochrome P450 1A1 [7], 77 µM.
By Ki is commonly meant a dissociation constant, usually derived from enzyme kinetics or from competition with a known ligand. In the case of `Oc1ccc(/C=C/c2cc(O)cc(O)c2)cc1` [RESVERATROL], the IC50 at Cytochrome P450 1A1 [12] stood at 11000 nM; at Cytochrome P450 1A1 [13] it was 23000 nM; against Cytochrome P450 1B1 [15], 1400 nM. For the same compound, the inhibition constant (Ki) at Cytochrome P450 1B1 [14] came out at 750 nM.
